The values below come from patent US20200354331A1, “ICARIIN DERIVATIVES” (H. LEE MOFFITT CANCER CENTER AND RESEARCH INSTITUTE, INC., priority 2014, published 2020).

SMILES strings stand for the structures. Entries after “also recorded” stand apart in the source; their conditions may differ.

Assay [1] has as its system MDSCs isolated from tumors of 4T1 tumor-bearing mice. Briefly: ROS and NO production of MDSC isolated from tumors. As to conditions: MDSCs from tissue of tumor-bearing mice, 20 μM, 48 h. It counts as cell-based. Here is the method: FIGS. 3A-3C depicts the effect of ICA and ICT on expansion of MDSCs isolated from tumor and their ROS and NO production. Gr1^+ cells were isolated from tumors of 4T1 tumor-bearing mice. (FIG. 3A) MDSCs were treated with 20 μM of ICA, ICT, or DMSO for 48 h. Bars represent the relative percentage of MDSC as compared to DMSO treated cells measured by flow cytometry. (FIG. 3B) Production of ROS and (FIG. 3C) NO activity of purified MDSC from tumor tissue.
Specifically, BMNCs from three healthy donors were treated with different concentrations of ICA or ICT for 48 hours after which colony formation was assessed using MethoCult H4434 complete medium with cytokines. The mixture was placed in 35-mm culture dishes (1×10^5 cells/each dish) and incubated at 37° C. in 5% CO2 for approximately 7-14 days. After incubation, colonies of CFU-E, BFU-E and CFU-GM were indentified and counted using an inverted light microscope. […] Although, these cells were obtained from spleens, it was also found ICA/ICT has a similar effect on MDSCs isolated from tumor tissue. Here, Gr1^+ cells were isolated from tumors of 4T1 tumor-bearing mice. […] Bars represent the relative percentage of MDSC as compared to DMSO treated cells measured by flow cytometry (FIG. 3A). The production of ROS (FIG. 3B) and NO (FIG. 3C) activity of purified MDSC from tumor tissue was also measured.

In the next assay the test system is MCF-7. Briefly: IC50 of ICT in cell lines. It counts as cell-based. As to conditions: Homo sapiens, MCF7.
For a further assay, the target named is T1, PP2A bound to PDE5 (Homo sapiens, UniProt O76074).
T1 construct: Cells were then lysed and PDE5 was immunoprecipitated following a Western Blot with anti-PP2A; endogenous in cells; host or cells: human PBMC
Kind of assay: Co-immunoprecipitation of PDE5 with PP2A in PBMC. It counts as cell-based. Conditions: 48 hours. As for the experimental part: Human PBMC were cultured for 48 hours with media, DMSO or increasing doses of ICT (1, 5, 10, 20 μM respectively). Cells were then lysed and PDE5 was immunoprecipitated following a Western Blot with anti-PP2A. Coomasie blue staining of the membrane is shown as loading control.
To understand if there is a link correlating S100A9/SIGLEC3 and PDE5 activation, SJCRH30 cells were transfected with either vector, S100A9 or SIGLEC 3. Seventy two hours post-transfection cells were lysed and assessed by Western Blot for either PDE5 or its phosphorylated counterpart.

In another assay the test system is CD33 and iNOS. Briefly: Expression of CD33 and iNOS on MDS-BM (flow cytometry, Q-PCR). It counts as cell-based. Also noted: concentration or dose not given beside the values. Conditions: 48 hours, 20 ICT.
Assay [2] concerns B16. Kind of assay: Apoptosis rates of ICT in cell lines. It counts as cell-based.
Assay [3] deals with B16. Briefly: IC50 of ICT in cell lines. It counts as cell-based. As to conditions: Mus musculus.
For assay [4], the target named is GMP-specific recombinant bovine phosphodiesterase Type V (Bos taurus, UniProt Q28156). Briefly: PDE5 phosphodiesterase inhibition, PDE-Glo system. The class given is biochemical.
In another assay the test system is SIGLEC3. Kind of assay: SIGLEC3/CD33 expression on PBMC (Q-PCR, flow cytometry). Conditions: healthy PBMC, 48 hours; for SIGLEC3 mRNA and protein expression: 1 μM (Q-PCR). The class given is cell-based, human. Here is the method:
FIG. 4 depicts the down-regulation of the RNA expression of SIGLEC3 on PBMCs due to ICA and ICT. Healthy PBMC were cultured for 48 hours with 1 μM of DMSO, ICA or ICT and the expression of SIGLEC3 was measured by Q-PCR and analyzed by the AACt method. Error bars indicate SEM.
FIG. 5 depicts the effect of ICT on the expression of SIGLEC3 and SIGLEC5 on PBMC. PBMC from healthy donors were treated for 48 hours with DMSO or ICT and stained extra-cellularly with SIGLEC3-PE and SIGLEC5/14-APC antibodies (BD biosciences).
SIGLEC3 is highly expressed in MDSCs isolated from patients with AML (FIG. 6a). […] Specifically, healthy PBMC were cultured for 48 hours with 1 μM of DMSO, ICA or ICT and the expression of SIGLEC3 was measured by Q-PCR and analyzed by the MCt method. Also, PBMC from healthy donors were treated for 48 hours with DMSO or ICT and stained extra-cellularly with SIGLEC3-PE and SIGLEC5/14-APC antibodies (BD biosciences). S100A9 can ligate with SIGLEC3, denoting the presence of an uncharacterized pathway that could be linked to the identification of specific strategies targeting the regulation of MDSC activation.
Healthy PBMC were cultured for 48 hours with […] of the PDE5 inhibitor ICT and the expression of SIGLEC3 measured by the DDCt method. The experimental control is PBMC treated with DMSO and the internal control was GAPDH. Error bars indicate the SEM of three separate donors/experiments.
For orientation: In flow cytometry, cells or beads pass a laser one at a time.

A further assay deals with IL-10 and TGFb. Kind of assay: Expression of IL-10 and TGFb on LPS-treated PBMC (Q-PCR). It counts as cell-based. As to conditions: 48 hours, 20 μM. As for the experimental part:
The relative expression of IL-10 and TGFb by Q-PCR are shown in FIGS. 19A and 19B, respectively. Healthy PBMC were cultured for 48 hours with 20 μM ICT and the gene expression measured by the DDCt method. The experimental control is PBMC treated with DMSO for 48 hours and the internal control was GAPDH. Error bars indicate the SEM of three separate donors/experiments.

A further assay concerns 4T1. Briefly: IC50 of ICT in cell lines. Conditions: Mus musculus. It counts as cell-based.
The next assay concerns Gr-1+CD11b+ MDSCs. Briefly: Circulating Gr-1+CD11b+ MDSC in spleens of 4T1 tumor-bearing mice (flow cytometry). The class given is in vivo, BALB/c mice. Conditions: 100 mg/kg i.p. three times weekly, vehicle 50.28%. Here is the method: FIG. 1 depicts the effects of ICA or ICT on the differentiation of MDSC. MDSC were isolated from spleens of 4T1 tumor-bearing mice. The maturation markers indicated were used to evaluate the differentiation and accumulation of MDSC in tumor bearing mice. Cell phenotype was evaluated by flow cytometry. One of the most striking features of ICA and ICT is their anti-tumorigenic ability in vivo. Seven days post-infection 1 cm diameter 4T1 tumors from 5 mice were established in BALB/c mice. Mice were treated with 100 mg/kg of ICA, ICT or vehicle (i.p.) three times weekly and tumor size (mean and SD) was monitored every 2 to 3 days. The percentages of double-positive Gr-1+CD11b′ MDSCs were determined for spleens of five mice per group. Cell phenotype was evaluated by flow cytometry. […] ICA or ICT on the differentiation of MDSC.

The next assay relates to Bone marrow. Kind of assay: Apoptosis rates of ICT in cell lines. It counts as cell-based.

One may read the IC50 as the midpoint of a concentration-inhibition curve. In the case of `COc1ccc(-c2oc3c(CCC(C)(C)O)c(O)cc(O)c3c(=O)c2O)cc1` [ICT, 3,5,7-trihydroxy-4′-methoxy-8-(3-hydroxy-3-methylbutyl)-flavone], in assay [1], the “NO and ROS production by MDSCs” value was “inhibit NO and ROS production”. For the same compound, the IC50 with MCF-7 stood at 23.2 µM; with B16 [3], 25.8 µM; in the assay with 4T1, 6.7 µM. For the same compound, the “association of PP2A with PDE5” value on PP2A bound to PDE5 is “decreased”. Besides, in the assay with CD33 and iNOS, the “expression of CD33 and iNOS on MDS-BM” value is “down-regulate the expression of CD33 and iNOS on MDS-BM”. Further, the Apoptosis rates in the assay with B16 [2] (B16, 5 μM) is 2.5%; with B16 [2] (B16, 10 μM), 3.8%; in the assay on B16 [2] (B16, 20 μM), 3.5%; in the assay on Bone marrow (5 μM), 2.7%; with Bone marrow (10 μM), 4.3%; in the assay on Bone marrow (20 μM), 4.8%. The “phosphodiesterase (enzymatic) activity of PDE5” value in [4] is “block the phosphodiesterase activity of PDE5; also recorded: inhibit the enzymatic activity of PDE5”. In addition, the “SIGLEC3 mRNA and protein expression” value in the assay on SIGLEC3 was “down-regulating SIGLEC3 at both the mRNA and protein expression levels”. Also, in the assay with SIGLEC3 (20 μM), the “expression of CD33 on PBMC” value is recorded as “down-regulate the expression of CD33 on PBMC”. Besides, in the assay with IL-10 and TGFb, the “expression of IL-10 and TGFb on LPS-treated PBMC” value was “down-regulate the expression of the suppressive cytokine IL-10 and TGFb on LPS-treated PBMC”. In addition, the “percent of circulating MDSC” value with Gr-1+CD11b+ MDSCs amounted to 26.97%.

Turning to `COc1ccc(-c2oc3c(CC=C(C)C)c(O[C@@H]4O[C@H](CO)[C@@H](O)[C@H](O)[C@H]4O)cc(O)c3c(=O)c2O[C@@H]2O[C@@H](C)[C@H](O)[C@@H](O)[C@H]2O)cc1` [ICA, Icariin], the “NO and ROS production by MDSCs” value in [1] was “inhibit NO and ROS production”. Also, the “association of PP2A with PDE5” value on PP2A bound to PDE5 was “decreased”. The “phosphodiesterase (enzymatic) activity of PDE5” value in [4] is “block the phosphodiesterase activity of PDE5; also recorded: inhibit the enzymatic activity of PDE5”. The “SIGLEC3 mRNA and protein expression” value in the assay with SIGLEC3 was “down-regulating SIGLEC3 at both the mRNA and protein expression levels”. The “percent of circulating MDSC” value in the assay with Gr-1+CD11b+ MDSCs is recorded as 33.35%.
